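Cultured in 96-well plates, cells were exposed to test compound for 48 hours across five concentrations. GI50 marks 50% less growth.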 Activity calls are given as the source filed them. Cut-off read from the data, not from the text of the source: active = GI50 up to about 1.1 µM and inactive = higher.
Key:
Assay in all cases: growth of human tumour cells (NCI), 48 h
NCI-H226 = system: NCI-H226
KM-20L2 = system: KM-20L2
DLD-1 = system: DLD-1
LXFL 529 = system: LXFL 529
K562 = system: K562
HCT-15 = system: HCT-15
COLO 205 = system: COLO 205
HOP-92 = system: HOP-92
CCRF-CEM = system: CCRF-CEM
HOP-18 = system: HOP-18
M19-MEL = system: M19-MEL
RPMI-8226 = system: RPMI-8226
OVCAR-4 = system: OVCAR-4
SK-MEL-28 = system: SK-MEL-28
EKVX = system: EKVX
SR = system: SR
XF498 = system: XF498
SK-MEL-2 = system: SK-MEL-2
M14 = system: M14
SN12C = system: SN12C
CAKI-1 = system: CAKI-1
A549 = system: A549
NCI-H522 = system: NCI-H522
SF-539 = system: SF-539
SK-MEL-5 = system: SK-MEL-5
SNB-19 = system: SNB-19
OVCAR-5 = system: OVCAR-5
SNB-75 = system: SNB-75
TK-10 = system: TK-10
RXF 631 = system: RXF 631
SNB-78 = system: SNB-78
DMS-114 = system: DMS-114
IGROV-1 = system: IGROV-1
KM12 = system: KM12
NCI-H23 = system: NCI-H23
A498 = system: A498
Malme-3M = system: Malme-3M
UACC-257 = system: UACC-257
SW-620 = system: SW-620
HOP-62 = system: HOP-62
SK-OV-3 = system: SK-OV-3
HT-29 = system: HT-29
OVCAR-3 = system: OVCAR-3
UACC-62 = system: UACC-62
SF-268 = system: SF-268
OVCAR-8 = system: OVCAR-8
ACHN = system: ACHN
HCT-116 = system: HCT-116
NCI-H460 = system: NCI-H460
786-0 = system: 786-0
UO-31 = system: UO-31
U-251 = system: U-251
HL-60 = system: HL-60
MOLT-4 = system: MOLT-4
SF-295 = system: SF-295
DMS-273 = system: DMS-273
LOX IMVI = system: LOX IMVI
RXF 393 = system: RXF 393
HCC 2998 = system: HCC 2998

O=C(O)/C(Cl)=C(Cl)/C=N/NC(=O)c1cc2ccccc2cc1O
GI50 (NCI-H226): 18.6 µM (inactive)
GI50 (KM-20L2): 28.8 µM (inactive)
GI50 (DLD-1): 7.69 µM (inactive)
GI50 (LXFL 529): 21.6 µM (inactive)
GI50 (K562): 6.11 µM (inactive)
GI50 (HCT-15): 19.4 µM
GI50 (COLO 205): 32.5 µM (inactive)
GI50 (HOP-92): 30.3 µM (inactive)
GI50 (CCRF-CEM): 4.86 µM (inactive)
GI50 (HOP-18): 13.5 µM (inactive)
GI50 (M19-MEL): 17.9 µM (inactive)
GI50 (RPMI-8226): 6.71 µM (inactive)
GI50 (OVCAR-4): 5.66 µM (inactive)
GI50 (SK-MEL-28): 29.8 µM (inactive)
GI50 (EKVX): 30.2 µM (inactive)
GI50 (SR): 9.55 µM (inactive)
GI50 (XF498): 35.4 µM (inactive)
GI50 (SK-MEL-2): 16 µM (inactive)
GI50 (M14): 14.5 µM (inactive)
GI50 (SN12C): 38.5 µM (inactive)
GI50 (CAKI-1): 21 µM (inactive)
GI50 (A549): 9.18 µM (inactive)
GI50 (NCI-H522): 22.1 µM (inactive)
GI50 (SF-539): 29.6 µM (inactive)
GI50 (SK-MEL-5): 9.82 µM (inactive)
GI50 (SNB-19): 35.2 µM (inactive)
GI50 (OVCAR-5): 19.3 µM (inactive)
GI50 (SNB-75): 3.38 µM (inactive)
GI50 (TK-10): 35.5 µM (inactive)
GI50 (RXF 631): 26.4 µM (inactive)
GI50 (SNB-78): 33.7 µM (inactive)
GI50 (DMS-114): 17.3 µM (inactive)
GI50 (IGROV-1): 15.5 µM (inactive)
GI50 (KM12): 36.8 µM (inactive)
GI50 (NCI-H23): 8.57 µM (inactive)
GI50 (A498): 24.6 µM (inactive)
GI50 (Malme-3M): 37.2 µM (inactive)
GI50 (UACC-257): 15.5 µM (inactive)
GI50 (SW-620): 17.3 µM (inactive)
GI50 (HOP-62): 36.6 µM (inactive)
GI50 (SK-OV-3): 49.2 µM (inactive)
GI50 (HT-29): 38.6 µM (inactive)
GI50 (OVCAR-3): 6.11 µM (inactive)
GI50 (UACC-62): 3.6 µM (inactive)
GI50 (SF-268): 7.66 µM (inactive)
GI50 (OVCAR-8): 19.7 µM (inactive)
GI50 (ACHN): 18 µM (inactive)
GI50 (HCT-116): 13.9 µM (inactive)
GI50 (NCI-H460): 21 µM (inactive)
GI50 (786-0): 19.1 µM (inactive)
GI50 (UO-31): 2.48 µM (inactive)
GI50 (U-251): 27.5 µM (inactive)
GI50 (HL-60): 5.42 µM (inactive)
GI50 (MOLT-4): 5.89 µM (inactive)
GI50 (SF-295): 11.9 µM (inactive)
GI50 (DMS-273): 6.84 µM (inactive)

CC(=O)NC1=C(N)C(=O)c2ccccc2C1=O
GI50 (KM-20L2): 87.5 µM (inactive)
GI50 (DLD-1): 31.4 µM (inactive)
GI50 (LXFL 529): 45 µM (inactive)
GI50 (K562): 57.5 µM (inactive)
GI50 (HCT-15): 47.6 µM
GI50 (COLO 205): 30.5 µM (inactive)
GI50 (HOP-92): > 100 µM (inactive)
GI50 (CCRF-CEM): 47.1 µM (inactive)
GI50 (HOP-18): > 100 µM (inactive)
GI50 (M19-MEL): 19.4 µM (inactive)
GI50 (RPMI-8226): 60 µM (inactive)
GI50 (EKVX): > 100 µM (inactive)
GI50 (XF498): > 100 µM (inactive)
GI50 (SK-MEL-2): 90.6 µM (inactive)
GI50 (LOX IMVI): 15.3 µM (inactive)
GI50 (M14): 43.6 µM (inactive)
GI50 (SN12C): 54.7 µM (inactive)
GI50 (CAKI-1): > 100 µM (inactive)
GI50 (A549): 44.4 µM (inactive)
GI50 (NCI-H522): 79.4 µM (inactive)
GI50 (SF-539): > 100 µM (inactive)
GI50 (RXF 393): 46.9 µM (inactive)
GI50 (SK-MEL-5): 30.6 µM (inactive)
GI50 (SNB-19): > 100 µM (inactive)
GI50 (OVCAR-5): > 100 µM (inactive)
GI50 (SNB-75): > 100 µM (inactive)
GI50 (TK-10): > 100 µM (inactive)
GI50 (RXF 631): > 100 µM (inactive)
GI50 (SNB-78): > 100 µM (inactive)
GI50 (DMS-114): 14.8 µM (inactive)
GI50 (IGROV-1): > 100 µM (inactive)
GI50 (KM12): > 100 µM (inactive)
GI50 (NCI-H23): 59.2 µM (inactive)
GI50 (A498): > 100 µM (inactive)
GI50 (Malme-3M): 21.3 µM (inactive)
GI50 (UACC-257): > 100 µM (inactive)
GI50 (SW-620): 14.9 µM (inactive)
GI50 (HOP-62): > 100 µM (inactive)
GI50 (SK-OV-3): > 100 µM (inactive)
GI50 (HT-29): 65.8 µM (inactive)
GI50 (OVCAR-3): 20.2 µM (inactive)
GI50 (UACC-62): 49.8 µM (inactive)
GI50 (SF-268): 37.8 µM (inactive)
GI50 (OVCAR-8): > 100 µM (inactive)
GI50 (ACHN): > 100 µM (inactive)
GI50 (HCT-116): 17.7 µM (inactive)
GI50 (NCI-H460): 20 µM (inactive)
GI50 (786-0): 37.7 µM (inactive)
GI50 (UO-31): > 100 µM (inactive)
GI50 (U-251): 56.5 µM (inactive)
GI50 (HL-60): 27.1 µM (inactive)
GI50 (MOLT-4): > 100 µM (inactive)
GI50 (SF-295): > 100 µM (inactive)
GI50 (HCC 2998): > 100 µM (inactive)
GI50 (DMS-273): > 100 µM (inactive)

— ChEMBL document CHEMBL1201862, “PubChem BioAssay data set” (2004)
